Measured values: patent publication CN104650070A, “二氢嘧啶类化合物及其在药物中的应用” (Guangdong HEC Pharmaceutical Co Ltd, priority 2013, dated 2015)

test system: HBV; experiment: not given; details: cited from Science, 299 (2003), 893-896; cited from earlier work

Q: Which IC50 does the source give for `Nc1ccn([C@@H]2CS[C@H](CO)O2)c(=O)n1` [拉米夫定] here?
A: Its IC50 is 0.3 µM.

test system: HBV in HepG2.2.15 cells (HBV HepG2.2.15细胞株); experiment: In vitro anti-HBV activity in HBV HepG2.2.15 cell line (qPCR of HBV DNA in culture supernatant); format: cell-based; details: Hepatitis B virus, 192 h, HBV DNA in culture supernatant by qPCR, collected on day 8, top concentration 16.4 μM, 3-fold dilution, 9 points, duplicate wells

Q: Which EC50 does the source give for `CCOC(=O)C1=C(CN2CCOC[C@H]2C(=O)NS(C)(=O)=O)NC(c2nccs2)=NC1c1ccc(F)cc1Br` (stereo partly drawn) [实施例1, 4-(2-溴-4-氟苯基)-6-(((S)-3-((甲磺酰基)氨甲酰基)吗啉代)甲基)-2-(噻唑-2-基)-1,4-二氢嘧啶-5-甲酸乙酯] here?
A: Its EC50 is 1 µM.

Q: Which EC50 does the source give for `CCOC(=O)C1=C(CN2CCOC[C@H]2C(=O)NS(=O)(=O)C2CC2)NC(c2nccs2)=NC1c1ccc(F)cc1Br` (stereo partly drawn) [实施例2, 4-(2-溴-4-氟苯基)-6-(((S)-3-((环丙磺酰基)氨甲酰基)吗啉)甲基)-2-(噻唑-2-基)-1,4-二氢嘧啶-5-甲酸乙酯] here?
A: Its EC50 is 2.3 µM.

Q: For `CCOC(=O)C1=C(CN2CCOC(CCC(=O)NCc3ccccc3)C2)NC(c2nccs2)=NC1c1ccc(F)cc1Br` (centres unmarked) [实施例3, 6-((2-(3-(苄胺)-3-氧代丙基)吗啉)甲基)-4-(2-溴-4-氟苯基)-2-(噻唑-2-基)-1,4-二氢嘧啶-5-甲酸乙酯], which EC50 is on record?
A: Its EC50 is 0.13 µM.

Q: With `CCOC(=O)C1=C(CN2CCOC[C@H]2C(=O)NC2CC2)NC(c2nccs2)=N[C@H]1c1ccc(F)cc1Br` [实施例4, (R)-4-(2-溴-4-氟苯基)-6-(((S)-3-(环丙氨甲酰基)吗啉代)甲基)-2-(噻唑-2-基)-1,4-二氢嘧啶-5-甲酸乙酯] as the compound, how does the EC50 read?
A: The EC50 was 0.7 µM.

Q: For `CCOC(=O)C1=C(CN2CCOC[C@H]2C(=O)NC2CC2)NC(c2nccs2)=N[C@H]1c1ccc(F)cc1Cl` [实施例5, (R)-4-(2-氯-4-氟苯基)-6-(((S)-3-(环丙氨甲酰基)吗啉代)甲基)-2-(噻唑-2-基)-1,4-二氢嘧啶-5-甲酸乙酯], which EC50 is on record?
A: The EC50 was 0.8 µM.

Q: For `CCOC(=O)C1=C(CN2CCOC[C@H]2C(=O)NC2CC2)NC(c2nccs2)=N[C@H]1c1ccc(Cl)cc1Cl` [实施例6, (R)-6-(((S)-3-(环丙氨甲酰基)吗啉代)甲基)-4-(2,4-二氯苯基)-2-(噻唑-2-基)-1,4-二氢嘧啶-5-甲酸乙酯], which EC50 is on record?
A: The EC50 was 0.65 µM.

Q: Which EC50 does the source give for `CCOC(=O)C1=C(CN2CCOC[C@H]2C(=O)NCc2ccccc2)NC(c2nccs2)=N[C@H]1c1ccc(F)cc1Br` [实施例7, (R)-6-(((S)-3-(苄基氨甲酰基)吗啉代)甲基)-4-(2-溴-4-氟苯基)-2-(噻唑-2-基)-1,4-二氢嘧啶-5-甲酸乙酯] here?
A: The EC50 was 0.67 µM.

Q: Which EC50 does the source give for `CCOC(=O)C1=C(CN2CCOC[C@H]2C(=O)NCc2ccccc2)NC(c2nccs2)=N[C@H]1c1ccc(F)cc1Cl` [实施例8, (R)-6-(((S)-3-(苄基氨甲酰基)吗啉代)甲基)-4-(2-氯-4-氟苯基)-2-(噻唑-2-基)-1,4-二氢嘧啶-5-甲酸乙酯] here?
A: Its EC50 is 0.89 µM.

Q: Which EC50 does the source give for `CCOC(=O)C1=C(CN2CCOC[C@H]2C(=O)NCc2ccccc2)NC(c2nccs2)=N[C@H]1c1ccc(Cl)cc1Cl` [实施例9, (R)-6-(((S)-3-(苄基氨甲酰)吗啉代)甲基)-4-(2,4-二氯苯基)-2-(噻唑-2-基)-1,4-二氢嘧啶-5-甲酸乙酯] here?
A: The EC50 was 0.54 µM.

Q: Which EC50 does the source give for `CCOC(=O)C1=C(CN2CCOC[C@H]2C(=O)Nc2ccccc2)NC(c2nccs2)=N[C@H]1c1ccc(F)cc1Br` [实施例10, (R)-4-(2-溴-4-氟苯基)-6-(((S)-3-(苯基氨甲酰基)吗啉代)甲基)-2-(噻唑-2-基)-1,4-二氢嘧啶-5-甲酸乙酯] here?
A: The EC50 was 0.8 µM.

Q: With `CCOC(=O)C1=C(CN2CCOC[C@H]2C(=O)Nc2ccccc2)NC(c2nccs2)=N[C@H]1c1ccc(F)cc1Cl` [实施例11, (R)-4-(2-氯-4-氟苯基)-6-(((S)-3-(苯基氨甲酰基)吗啉代)甲基)-2-(噻唑-2-基)-1,4-二氢嘧啶-5-甲酸乙酯] as the compound, how does the EC50 read?
A: Its EC50 is 0.92 µM.

Q: For `CCOC(=O)C1=C(CN2CCOC[C@H]2C(=O)Nc2ccccc2)NC(c2nccs2)=N[C@H]1c1ccc(Cl)cc1Cl` [实施例12, (R)-4-(2,4-二氯苯基)-6-(((S)-3-(苯基氨甲酰基)吗啉代)甲基)-2-(噻唑-2-基)-1,4-二氢嘧啶-5-甲酸乙酯], which EC50 is on record?
A: Its EC50 is 0.72 µM.

Q: Which EC50 does the source give for `CCOC(=O)C1=C(CN2CCOC[C@H]2C(=O)Nc2nccs2)NC(c2nccs2)=N[C@H]1c1ccc(F)cc1Br` [实施例13, (R)-4-(2-溴-4-氟苯基)-2-(噻唑-2-基)-6-(((S)-3-(噻唑-2-基氨甲酰)吗啉代)甲基)-1,4-二氢嘧啶-5-甲酸乙酯] here?
A: The EC50 was 1.4 µM.

Q: Which EC50 does the source give for `CCOC(=O)C1=C(CN2CCOC(CCC(=O)Nc3ccccc3)C2)NC(c2nccs2)=NC1c1ccc(F)cc1Br` (centres unmarked) [实施例14, 4-(2-溴-4-氟苯基)-6-((-2-(3-氧代-3-(苯胺)丙基)吗啉代)甲基)-2-(噻唑-2-基)-1,4-二氢嘧啶-5-甲酸乙酯] here?
A: Its EC50 is 0.54 µM.

Q: With `CCOC(=O)C1=C(CN2CCOC(CCC(=O)Nc3ccccc3)C2)NC(c2nccs2)=NC1c1ccc(F)cc1Cl` (centres unmarked) [实施例15, 4-(2-氯-4-氟苯基)-6-((-2-(3-氧代-3-(苯胺)丙基)吗啉代)甲基)-2-(噻唑-2-基)-1,4-二氢嘧啶-5-甲酸乙酯] as the compound, how does the EC50 read?
A: Its EC50 is 0.67 µM.

Q: With `CCOC(=O)C1=C(CN2CCOC(CCC(=O)Nc3ccccc3)C2)NC(c2nccs2)=NC1c1ccc(Cl)cc1Cl` (centres unmarked) [实施例16, 4-(2,4-二氯苯基)-6-((-2-(3-氧代-3-(苯胺)丙基)吗啉代)甲基)-2-(噻唑-2-基)-1,4-二氢嘧啶-5-甲酸乙酯] as the compound, how does the EC50 read?
A: The EC50 was 0.49 µM.

Q: With `COC(=O)C1=C(CN2CCOC(CCC(=O)NS(=O)(=O)c3ccccc3)C2)NC(c2nccs2)=NC1c1ccc(F)cc1Br` (centres unmarked) [实施例17, 4-(2-溴-4-氟苯基)-6-((-2-(3-氧代-3-(苯磺酰胺)丙基)吗啉代)甲基)-2-(噻唑-2-基)-1,4-二氢嘧啶-5-甲酸甲酯] as the compound, how does the EC50 read?
A: Its EC50 is 0.65 µM.

Q: With `COC(=O)C1=C(CN2CCOC(CCC(=O)NS(=O)(=O)c3ccccc3)C2)NC(c2nccs2)=NC1c1ccc(F)cc1Cl` (centres unmarked) [实施例18, 4-(2-氯-4-氟苯基)-6-((2-(3-氧代-3-(苯磺酰胺)丙基)吗啉代)甲基)-2-(噻唑-2-基)-1,4-二氢嘧啶-5-甲酸甲酯] as the compound, how does the EC50 read?
A: The EC50 was 0.74 µM.

Q: For `COC(=O)C1=C(CN2CCOC(CCC(=O)NS(=O)(=O)c3ccccc3)C2)NC(c2nccs2)=NC1c1ccc(Cl)cc1Cl` (centres unmarked) [实施例19, 4-(2,4-二氯苯基)-6-((2-(3-氧代-3-(苯磺酰胺)丙基)吗啉代)甲基)-2-(噻唑-2-基)-1,4-二氢嘧啶-5-甲酸甲酯], which EC50 is on record?
A: The EC50 was 0.56 µM.
